Results published in patent publication US20100311677A1, “Active Ingredient Combinations Having Insecticidal and Acaricidal Properties” (Bayer CropScience AG, priority 2007, published 2010).
Read-outs that look alike come from different tables or passages of the source.

Experiments:
[1] = system: Myzus persicae; test: Myzus persicae test (Example C), sprayed cabbage leaves; format: in vivo; conditions: for pest or weed control at 0.8 g/ha / pest or weed control at 0.16 g/ha / pest or weed control at 4 g/ha / pest or weed control at 0.032 g/ha: Myzus persicae, 144 h, read-out: Kill in % after 6d
[2] = system: Tetranychus urticae; test: Tetranychus urticae test (OP-resistant/spray treatment) (Example G), bean leaf disks; format: in vivo; conditions: for pest or weed control at 20 g/ha / pest or weed control at 4 g/ha / pest or weed control at 0.8 g/ha / pest or weed control at 100 g/ha: Tetranychus urticae, foliar, 144 h, read-out: Kill in % after 6 d; for Kill in % after 2d: alone
Method: Tetranychus urticae Test (OP-Resistant/Spray Treatment)
After the desired period of time, the activity in % is determined.

[3] = system: Phaedon cochleariae; test: Phaedon cochleariae larvae test (Example E), sprayed cabbage leaves; conditions: for pest or weed control at 20 g/ha / pest or weed control at 4 g/ha / pest or weed control at 100 g/ha / pest or weed control at 0.16 g/ha / pest or weed control at 0.8 g/ha: Phaedon cochleariae, in Brassica oleracea, 144 h, read-out: Kill in % after 6d; for Kill in % after 2d: alone
[4] = system: Spodoptera frugiperda; test: Spodoptera frugiperda larvae test (Example F), sprayed cabbage leaves; format: in vivo; conditions: for pest or weed control at 0.8 g/ha / pest or weed control at 4 g/ha: after 6 d
From the text: Spodoptera frugiperda Larvae Test

[5] = active compound alone, 20 g/ha, after 6 d
[6] = Spodoptera frugiperda, 144 h, alone, read-out: Kill in % after 6d
[7] = active compound alone, 4 g/ha, after 6 d
[8] = active compound alone, 0.8 g/ha, after 6 d
[9] = active compound alone, 100 g/ha, after 6 d

Cc1cc(C)c(C2=C(OC(=O)CC(C)(C)C)C3(CCCC3)OC2=O)c(C)c1 [spiromesifen (97), spiromesifen]
pest or weed control at 0.8 g/ha ([1]; 0.8 g/ha, alone, after 6 d): 0%

FC(F)(F)c1ccc(OCCCOc2c(Cl)cc(OCC=C(Cl)Cl)cc2Cl)nc1 [pyridalyl (99)]
Kill in % after 6d [2, 5]: 0%

CN(Cc1ccc(Cl)nc1)C1=CC(=O)OC1 [compound (100)]
pest or weed control at 0.16 g/ha ([1]; 0.16 g/ha, alone, after 6 d): 0%

CC(c1ccc(C(F)(F)F)nc1)S(C)(=O)=NC#N (stereo not shown) [II-29-29]
pest or weed control at 20 g/ha [2, 5]: 0%

O=S1OCC2C(CO1)C1(Cl)C(Cl)=C(Cl)C2(Cl)C1(Cl)Cl (stereo not shown) [endosulfan (49), endosulfan]
pest or weed control at 4 g/ha ([1]; 4 g/ha, alone, after 6 d): 0% | Kill in % after 2d ([2]; 100 g/ha): 0% | pest or weed control at 20 g/ha [3]: 33%

CC1(C)C(C=C(Cl)Cl)C1C(=O)OC(C#N)c1cccc(Oc2ccccc2)c1 (stereo not shown) [cypermethrin (5), cypermethrin]
pest or weed control at 0.8 g/ha [4, 6]: 17% | pest or weed control at 4 g/ha [2, 7]: 0% | pest or weed control at 4 g/ha [3]: 67%

CC(C)C(C(=O)OC(C#N)c1cccc(Oc2ccccc2)c1)c1ccc(Cl)cc1 (stereo not shown) [esfenvalerate (7), esfenvalerate]
Kill in % after 1d ([1]; 0.16 g/ha, alone): 0% | pest or weed control at 0.8 g/ha [2, 8]: 0% | pest or weed control at 4 g/ha [3]: 83%

O=C1C=C(N(Cc2ccc(Cl)nc2)CC(F)F)CO1 [compound (101)]
pest or weed control at 0.8 g/ha ([1]; 0.8 g/ha, alone, after 6 d): 50% | pest or weed control at 20 g/ha [2, 5]: 0%

abamectin [abamectin (60)]
Kill in % after 1d ([1]; 20 g/ha, alone): 5%

O=[N+]([O-])/N=C1\NCCN1Cc1ccc(Cl)nc1 [imidacloprid (24), imidacloprid]
pest or weed control at 0.032 g/ha ([1]; alone, after 6 d): 0% | pest or weed control at 0.8 g/ha [2, 8]: 0%

CCC(C)(C)C(=O)OC1=C(c2ccc(Cl)cc2Cl)C(=O)OC12CCCCC2 [spirodiclofen (96), spirodiclofen]
pest or weed control at 0.8 g/ha ([1]; 0.8 g/ha, alone, after 6 d): 0% | pest or weed control at 100 g/ha [3]: 0%

CC1(C)C(/C=C(\Cl)C(F)(F)F)C1C(=O)OC(C#N)c1cccc(Oc2ccccc2)c1 [L-cyhalothrin (12a), lambda-cyhalothrin]
pest or weed control at 0.032 g/ha ([1]; alone, after 6 d): 0% | pest or weed control at 4 g/ha [4, 6]: 50% | pest or weed control at 0.16 g/ha [3]: 0%

Cc1c(COC(=O)C2C(/C=C(\Cl)C(F)(F)F)C2(C)C)cccc1-c1ccccc1 (stereo not shown) [bifenthrin (18), bifenthrin]
pest or weed control at 0.8 g/ha [4, 6]: 0%

CNC(=O)c1cc(Cl)cc(C)c1NC(=O)c1cc(Br)nn1-c1ncccc1Cl [Rynaxapyr (56), chlorantraniliprole]
pest or weed control at 0.16 g/ha ([1]; 0.16 g/ha, alone, after 6 d): 0% | pest or weed control at 4 g/ha [2, 7]: 0%

Cc1nn(C)c(Oc2ccccc2)c1C=NOCc1ccc(C(=O)OC(C)(C)C)cc1 [fenpyroximate (65), fenpyroximate]
pest or weed control at 0.8 g/ha ([1]; 0.8 g/ha, alone, after 6 d): 0% | Kill in % after 2d ([2]; 0.8 g/ha): 10%

O=C(NC(=O)c1c(F)cccc1F)Nc1ccc(Oc2ccc(C(F)(F)F)cc2Cl)cc1F [flufenoxuron (38), flufenoxuron]
pest or weed control at 20 g/ha [2, 5]: 0% | pest or weed control at 4 g/ha [3]: 0%

CCOCn1c(-c2ccc(Cl)cc2)c(C#N)c(Br)c1C(F)(F)F [chlorfenapyr (92), chlorfenapyr]
pest or weed control at 0.8 g/ha ([1]; 0.8 g/ha, alone, after 6 d): 0% | pest or weed control at 4 g/ha [2, 7]: 70%

CN/C(=N\[N+](=O)[O-])NCc1cnc(Cl)s1 [clothianidin (30), clothianidin]
pest or weed control at 0.032 g/ha ([1]; alone, after 6 d): 0% | pest or weed control at 0.8 g/ha [2, 8]: 0%

C/C(=N\C#N)N(C)Cc1ccc(Cl)nc1 [acetamiprid (25), acetamiprid]
pest or weed control at 0.16 g/ha ([1]; 0.16 g/ha, alone, after 6 d): 0% | pest or weed control at 0.8 g/ha [2, 8]: 0% | pest or weed control at 0.8 g/ha [3]: 0%

chlorpyrifos [chlorpyrifos (95)]
Kill in % after 6d ([1]; 0.8 g/ha, alone, after 6 d): 0% | Kill in % after 6d [2, 5]: 0%

CCc1nn(C)c(C(=O)NCc2ccc(C(C)(C)C)cc2)c1Cl [tebufenpyrad (64), tebufenpyrad]
pest or weed control at 0.8 g/ha ([1]; 0.8 g/ha, alone, after 6 d): 0%

Cc1ccc(/N=C/N(C)/C=N/c2ccc(C)cc2C)c(C)c1 [amitraz (86), amitraz]
pest or weed control at 0.8 g/ha ([1]; 0.8 g/ha, alone, after 6 d): 0% | Kill in % after 2d ([2]; 4 g/ha): 0% | pest or weed control at 100 g/ha [3]: 0%

CNC(=O)Oc1cc(C)c(SC)c(C)c1 [methiocarb (110), methiocarb]
pest or weed control at 4 g/ha [3]: 0%

COc1cccc(C(=O)NN(C(=O)c2cc(C)cc(C)c2)C(C)(C)C)c1C [methoxyfenozide (44), methoxyfenozide]
pest or weed control at 0.8 g/ha ([1]; 0.8 g/ha, alone, after 6 d): 0% | pest or weed control at 20 g/ha [2, 5]: 0%

CN1COCN(Cc2cnc(Cl)s2)/C1=N/[N+](=O)[O-] [thiamethoxam (26), thiamethoxam]
pest or weed control at 0.032 g/ha ([1]; alone, after 6 d): 0%

CC1=NNC(=O)N(/N=C/c2cccnc2)C1 [pymetrozine (88), pymetrozine]
Kill in % after 1d ([1]; 20 g/ha, alone): 20% | pest or weed control at 20 g/ha [2, 5]: 0% | pest or weed control at 100 g/ha [3]: 0%

N#C/N=C1\SCCN1Cc1ccc(Cl)nc1 [thiacloprid (28), thiacloprid]
pest or weed control at 0.032 g/ha ([1]; alone, after 6 d): 0% | pest or weed control at 0.8 g/ha [2, 8]: 0% | Kill in % after 2d ([3]; 4 g/ha): 0%

CNC(=O)O/N=C/C(C)(C)SC [aldicarb (108), aldicarb]
Kill in % after 1d ([1]; 4 g/ha, alone): 30%

CC(C)c1cc(Oc2ccccc2)cc(C(C)C)c1NC(=S)NC(C)(C)C [diafenthiuron (76), diafenthiuron]
pest or weed control at 0.8 g/ha ([1]; 0.8 g/ha, alone, after 6 d): 0% | pest or weed control at 0.8 g/ha [2, 8]: 30% | pest or weed control at 20 g/ha [3]: 0%

COC(=O)N(C(=O)N1COC2(C(=O)OC)Cc3cc(Cl)ccc3C2=N1)c1ccc(OC(F)(F)F)cc1 (stereo not shown) [indoxacarb (94), indoxacarb]
pest or weed control at 4 g/ha ([1]; 4 g/ha, alone, after 6 d): 0% | pest or weed control at 4 g/ha [4, 6]: 0% | pest or weed control at 100 g/ha [2, 9]: 0%

N#Cc1nn(-c2c(Cl)cc(C(F)(F)F)cc2Cl)c(N)c1[S+]([O-])C(F)(F)F (stereo not shown) [fipronil (50), fipronil]
pest or weed control at 4 g/ha ([1]; 4 g/ha, alone, after 6 d): 0%

CN/C(=N/CC1CCOC1)N[N+](=O)[O-] (stereo not shown) [dinotefuran (29)]
Kill in % after 6d [2, 7]: 0%

CC[S+]([O-])c1c(C#N)nn(-c2c(Cl)cc(C(F)(F)F)cc2Cl)c1N (stereo not shown) [ethiprole (51)]
Kill in % after 6d [2, 9]: 0%

Nc1nc(N)nc(NC2CC2)n1 [cyromazine (43), cyromazine]
pest or weed control at 0.8 g/ha ([1]; 0.8 g/ha, alone, after 6 d): 0% | pest or weed control at 20 g/ha [2, 5]: 0% | pest or weed control at 100 g/ha [3]: 0%

O=C(NC(=O)c1c(F)cccc1F)Nc1cc(Cl)c(OC(F)(F)C(F)C(F)(F)F)cc1Cl (stereo not shown) [lufenuron (34), lufenuron]
pest or weed control at 0.8 g/ha ([1]; 0.8 g/ha, alone, after 6 d): 0% | Kill in % after 2d ([4]; 100 g/ha, alone, after 2 d): 0% | pest or weed control at 20 g/ha [2, 5]: 0%

profenofos [profenofos (114)]
Kill in % after 1d ([1]; 0.8 g/ha, alone): 0% | Kill in % after 6d [2, 5]: 0%

N#CCNC(=O)c1cnccc1C(F)(F)F [flonicamid (89), flonicamid]
Kill in % after 2d ([2]; 100 g/ha): 0%

CNC(=O)c1cc(C#N)cc(C)c1NC(=O)c1cc(Br)nn1-c1ncccc1Cl [Cyazypyr (57), Cyazypyr]
Kill in % after 1d ([1]; 4 g/ha, alone): 5% | pest or weed control at 0.16 g/ha [3]: 0%

CC(COc1ccc(Oc2ccccc2)cc1)Oc1ccccn1 (stereo not shown) [pyriproxifen (90), pyriproxyfen]
pest or weed control at 0.8 g/ha ([1]; 0.8 g/ha, alone, after 6 d): 0% | pest or weed control at 20 g/ha [2, 5]: 0% | pest or weed control at 100 g/ha [3]: 0%

CC1(C)C(C=C(Br)Br)C1C(=O)OC(C#N)c1cccc(Oc2ccccc2)c1 (stereo not shown) [deltamethrin (6), deltamethrin]
Kill in % after 1d ([1]; 0.16 g/ha, alone): 40% | pest or weed control at 0.8 g/ha [2, 8]: 0% | pest or weed control at 0.8 g/ha [3]: 50%

Cc1nn(C)c(/C(OC(=O)C(C)(C)C)=C(\C#N)c2ccc(C(C)(C)C)cc2)c1C [cyenopyrafen (71), (1E)-2-cyano-2-[4-(1,1-dimethylethyl)phenyl]-1-(1,3,4-trimethyl-1H-pyrazol-5-yl)ethenyl 2,2-dimethylpropanoate]
pest or weed control at 0.8 g/ha ([1]; 0.8 g/ha, alone, after 6 d): 0%

O=C(NC(=O)c1c(F)cccc1F)Nc1ccc(OC(F)(F)C(F)OC(F)(F)F)c(Cl)c1 (stereo not shown) [novaluron (37), novaluron]
pest or weed control at 4 g/ha [3]: 83%

carbosulfan [carbosulfan (109)]
Kill in % after 1d ([1]; 4 g/ha, alone): 0%

COCCOC(=O)C(C#N)(C(=O)c1ccccc1C(F)(F)F)c1ccc(C(C)(C)C)cc1 (stereo not drawn) [cyflumetofen (72), 2-methoxyethyl alpha-cyano-alpha-[4-(1,1-dimethylethyl)phenyl]-beta-oxo-2-(trifluoromethyl)benzenepropanoate]
pest or weed control at 4 g/ha ([1]; 4 g/ha, alone, after 6 d): 0% | pest or weed control at 4 g/ha [2, 7]: 80%

pyridaben [pyridaben (66)]
Kill in % after 6d ([1]; 0.8 g/ha, alone, after 6 d): 0% | Kill in % after 2d ([3]; 20 g/ha): 33%

COP(=O)(NC(C)=O)SC (stereo not shown) [acephate (112), acephate]
pest or weed control at 0.8 g/ha [1]: 0% | pest or weed control at 20 g/ha ([4]; Spodoptera frugiperda, 144 h, read-out: Kill in % after 6d): 33% | pest or weed control at 100 g/ha [2]: 0%

Cc1cc(C)c(-n2cnc(C(F)(F)F)n2)cc1SOCC(F)(F)F [compound (106)]
pest or weed control at 4 g/ha ([1]; 4 g/ha, alone, after 6 d): 0%

CC1(C)C(C=C(Cl)Cl)C1C(=O)OC(C#N)c1ccc(F)c(Oc2ccccc2)c1 (stereo not drawn) [beta-cyfluthrin (3), betacyfluthrin]
pest or weed control at 0.16 g/ha ([1]; 0.16 g/ha, alone, after 6 d): 0% | pest or weed control at 0.8 g/ha [2, 8]: 0% | pest or weed control at 0.8 g/ha [3]: 17%
